Assay results taken from ChEMBL document CHEMBL6182869, “Tetracationic tetraaryltetranaphtho[2,3]porphyrins for photodynamic inactivation against Staphylococcus aureus biofilm” (Eur J Med Chem, 2025).
Active and inactive are the calls of the source. The calls are words filed in the database; no cut-off is given here.

Columns and labels:
Escherichia coli [1] = assay: Antibacterial activity against Escherichia coli assessed as bacterial growth inhibition measured after 24 hrs by broth microdilution method; type: functional
[2] = Induction of singlet oxygen quantum yield under 418 nm light irradiation by DPBF based assay; type: functional
Staphylococcus aureus [3] = assay: Antibiofilm activity against Staphylococcus aureus assessed as reduction in green fluorescence intensity at 16 uM preincubated for 15 mins followed by light irradiation with 730 nm, 40 J/cm2 by SYTO 9/PI staining based CLSM analysis; type: functional, organism-based
Staphylococcus aureus [4] = assay: Antibiofilm activity against Staphylococcus aureus assessed as disruption of mature biofilm rate at 16 uM preincubated for 15 mins followed by light irradiation with 730 nm, 40 J/cm2 by crystal violet staining based analysis relative to control; type: functional; conditions: 0.25 h
Staphylococcus aureus [5] = assay: Antibiofilm activity against Staphylococcus aureus assessed as increase in red fluorescence intensity at 16 uM preincubated for 15 mins followed by light irradiation with 730 nm, 40 J/cm2 by SYTO 9/PI staining based CLSM analysis; type: functional, organism-based
HaCaT [6] = assay: Phototoxicity in human HaCaT cells assessed as cell viability at 16 uM preincubated for 15 mins by MTT assay; type: functional, cell-based
Staphylococcus aureus [7] = assay: Antibacterial activity against Staphylococcus aureus assessed as eradication rate at 8 uM preincubated with compound for 15 mins followed by light irradiation with 730 nm, 40 J/cm2 relative to control; type: functional; conditions: 0.25 h
Staphylococcus aureus [8] = assay: Antibacterial activity against Staphylococcus aureus assessed as log reduction in bacterial viability at 8 uM preincubated with compound for 15 mins followed by light irradiation with 730 nm, 40 J/cm2 by cell counting analysis relative to control; type: functional; conditions: 0.25 h
Staphylococcus aureus [9] = assay: Antibacterial activity against Staphylococcus aureus assessed as reduction in viable bacteria at 0.5 uM preincubated with compound for 15 mins followed by light irradiation with 730 nm, 40 J/cm2 by cell counting analysis relative to control; type: functional; conditions: 0.25 h
Staphylococcus aureus [10] = assay: Antibacterial activity against Staphylococcus aureus assessed as bacterial growth inhibition measured after 24 hrs by broth microdilution method; type: functional
HaCaT [11] = assay: Phototoxicity in human HaCaT cells assessed as cell viability at 16 uM preincubated for 15 mins followed by light irradiation with 730 nm, 40 J/cm2 by MTT assay; type: functional, cell-based
Candida albicans [12] = assay: Antifungal activity against Candida albicans assessed as fungal growth inhibition measured after 24 hrs by broth microdilution method; type: functional
[13] = Photophysical property of the compound assessed as fluorescence quantum yield by UV-vis spectrophotometric analysis; type: physicochemical
Staphylococcus aureus [14] = assay: Antibacterial activity against Staphylococcus aureus assessed as bacterial growth inhibition preincubated with compound for 15 mins followed by light irradiated with 730 nm, 40 J/cm2 and measured after 24 hrs by broth microdilution method; type: functional; conditions: light or radiation study, 24.25 h, time 1455 min
[15] = Photophysical property of the compound assessed as singlet oxygen quantum yield by UV-vis spectrophotometric analysis; type: physicochemical
Candida albicans [16] = assay: Antifungal activity against Candida albicans assessed as fungal growth inhibition preincubated with compound for 15 mins followed by light irradiated with 730 nm, 40 J/cm2 and measured after 24 hrs by broth microdilution method; type: functional; conditions: light or radiation study, 24.25 h, time 1455 min
[17] = Dark cytotoxicity against human HaCaT cells assessed as cell viability at 16 uM preincubated for 15 mins by MTT assay; type: toxicity, cell-based; conditions: read-out: Activity
Staphylococcus aureus [18] = assay: Bactericidal activity against Staphylococcus aureus at 0.5 to 8 uM; type: functional, organism-based; conditions: dose 0.5-8 µM
Escherichia coli [19] = assay: Antibacterial activity against Escherichia coli assessed as bacterial growth inhibition preincubated with compound for 15 mins followed by light irradiated with 730 nm, 40 J/cm2 and measured after 24 hrs by broth microdilution method; type: functional; conditions: light or radiation study, 24.25 h, time 1455 min
Staphylococcus aureus [20] = assay: Antibacterial activity against Staphylococcus aureus preincubated with compound for 15 mins followed by light irradiation with 730 nm, 40 J/cm2 by cell counting analysis; type: functional, organism-based; conditions: dose 0.5-8 µM
Staphylococcus aureus [21] = assay: Antibiofilm activity against Staphylococcus aureus assessed as disruption of mature biofilm structure at 16 uM preincubated for 15 mins followed by light irradiation with 730 nm, 40 J/cm2 by crystal violet staining based analysis; type: functional, organism-based
Staphylococcus aureus [22] = assay: Antibiofilm activity against Staphylococcus aureus at 16 uM preincubated for 15 mins followed by light irradiation with 730 nm, 40 J/cm2 by SYTO 9/PI staining based CLSM analysis; type: functional, organism-based
Staphylococcus aureus [23] = assay: Antibiofilm activity against Staphylococcus aureus assessed as viable bacteria at 16 uM preincubated for 15 mins followed by light irradiation with 730 nm, 40 J/cm2 by SYTO 9/PI staining based CLSM analysis; type: functional, organism-based

What does the source list for [Br-].[Br-].[Br-].[Br-].c1cc[n+](CCCOc2ccc(-c3c4nc(c(-c5ccc(OCCC[n+]6ccccc6)cc5)c5[nH]c(c(-c6ccc(OCCC[n+]7ccccc7)cc6)c6nc(c(-c7ccc(OCCC[n+]8ccccc8)cc7)c7[nH]c3c3cc8ccccc8cc73)-c3cc7ccccc7cc3-6)c3cc6ccccc6cc53)-c3cc5ccccc5cc3-4)cc2)cc1?
MIC (Escherichia coli [1]): > 64 µM; Activity [2]: Active; Activity (Staphylococcus aureus [3]): Active; Activity (Staphylococcus aureus [4]): 77.5%; Activity (Staphylococcus aureus [5]): Active; Activity (HaCaT [6]): inactive; Activity (Staphylococcus aureus [7]): >99.9%; log(activity) (Staphylococcus aureus [8]): 3; Activity (Staphylococcus aureus [9]): >75%; MIC (Staphylococcus aureus [10]): 32 µM; Activity (HaCaT [11]): inactive; MIC (Candida albicans [12]): 64 µM; Activity [13]: 0.07; MIC (Staphylococcus aureus [14]): 8 µM; Activity [15]: 0.45; MIC (Candida albicans [16]): 32 µM; viability at 0.25 h, 16 µM [17]: > 80%; Activity (Staphylococcus aureus [18]): Active; MIC (Escherichia coli [19]): > 64 µM; Activity (Staphylococcus aureus [20]): Dose-dependent-effect; Activity (Staphylococcus aureus [21]): Active

With CC[N+](C)(CC)CCCOc1ccc(-c2c3nc(c(-c4ccc(OCCC[N+](C)(CC)CC)cc4)c4[nH]c(c(-c5ccc(OCCC[N+](C)(CC)CC)cc5)c5nc(c(-c6ccc(OCCC[N+](C)(CC)CC)cc6)c6[nH]c2c2cc7ccccc7cc62)-c2cc6ccccc6cc2-5)c2cc5ccccc5cc42)-c2cc4ccccc4cc2-3)cc1.[Br-].[Br-].[Br-].[Br-] as the compound, how does the MIC (Escherichia coli [1]) read?
The MIC was greater than 64 µM.

What about the Activity [2] of the same compound?
Its Activity is “Active”.

What about the Activity (Staphylococcus aureus [3]) of the same compound?
Its Activity is “Active”.

And the Activity (Staphylococcus aureus [4])?
The Activity was 80.1%.

What about the Activity (Staphylococcus aureus [5]) of the same compound?
Its Activity is “Active”.

What about the Activity (HaCaT [6]) of the same compound?
The Activity was “inactive”.

And the Activity (Staphylococcus aureus [7])?
Its Activity is greater than 99.9%.

What about the “log(activity)” value (Staphylococcus aureus [8]) of the same compound?
The value was 3.

What about the Activity (Staphylococcus aureus [9]) of the same compound?
The Activity was greater than 75%.

What about the MIC (Staphylococcus aureus [10]) of the same compound?
Its MIC is 16 µM.

What about the Activity (Staphylococcus aureus [22]) of the same compound?
Its Activity is “Active”.

And the Activity (HaCaT [11])?
The Activity was “inactive”.

And the MIC (Candida albicans [12])?
The MIC was 64 µM.

And the Activity [13]?
The Activity was 0.06.

What about the MIC (Staphylococcus aureus [14]) of the same compound?
The MIC was 8 µM.

What about the Activity [15] of the same compound?
The Activity was 0.51.

And the MIC (Candida albicans [16])?
Its MIC is 64 µM.

What about the viability at 0.25 h, 16 µM [17] of the same compound?
The viability at 0.25 h, 16 µM was greater than 80%.

And the Activity (Staphylococcus aureus [18])?
Its Activity is “Active”.

What about the MIC (Escherichia coli [19]) of the same compound?
Its MIC is greater than 64 µM.

And the Activity (Staphylococcus aureus [23])?
The Activity was “Active”.

And the Activity (Staphylococcus aureus [20])?
Its Activity is “Dose-dependent-effect”.

And the Activity (Staphylococcus aureus [21])?
Its Activity is “Active”.

Which MIC (Escherichia coli [1]) does the source give for C[N+](C)(C)CCCOc1ccc(-c2c3nc(c(-c4ccc(OCCC[N+](C)(C)C)cc4)c4[nH]c(c(-c5ccc(OCCC[N+](C)(C)C)cc5)c5nc(c(-c6ccc(OCCC[N+](C)(C)C)cc6)c6[nH]c2c2cc7ccccc7cc62)-c2cc6ccccc6cc2-5)c2cc5ccccc5cc42)-c2cc4ccccc4cc2-3)cc1.[Br-].[Br-].[Br-].[Br-] here?
Its MIC is greater than 64 µM.

And the Activity [2]?
Its Activity is “Active”.

And the Activity (Staphylococcus aureus [3])?
Its Activity is “Active”.

What about the Activity (Staphylococcus aureus [4]) of the same compound?
The Activity was 72.6%.

And the Activity (Staphylococcus aureus [5])?
The Activity was “Active”.

And the Activity (HaCaT [6])?
The Activity was “inactive”.

What about the Activity (Staphylococcus aureus [7]) of the same compound?
Its Activity is greater than 99.9%.

And the “log(activity)” value (Staphylococcus aureus [8])?
The value was 3.

And the Activity (Staphylococcus aureus [9])?
Its Activity is greater than 75%.

And the MIC (Staphylococcus aureus [10])?
The MIC was 32 µM.

What about the Activity (HaCaT [11]) of the same compound?
The Activity was “inactive”.

What about the MIC (Candida albicans [12]) of the same compound?
Its MIC is 64 µM.

What about the Activity [13] of the same compound?
The Activity was 0.07.

And the MIC (Staphylococcus aureus [14])?
The MIC was 8 µM.

And the Activity [15]?
The Activity was 0.37.

And the MIC (Candida albicans [16])?
Its MIC is 64 µM.

And the viability at 0.25 h, 16 µM [17]?
Its viability at 0.25 h, 16 µM is greater than 80%.

And the Activity (Staphylococcus aureus [18])?
Its Activity is “Active”.

And the MIC (Escherichia coli [19])?
Its MIC is greater than 64 µM.

What about the Activity (Staphylococcus aureus [20]) of the same compound?
Its Activity is “Dose-dependent-effect”.

What about the Activity (Staphylococcus aureus [21]) of the same compound?
Its Activity is “Active”.
